This note sets out measurements from US20160317420A1, “METHOD OF IMPROVING THE APPEARANCE OF SKIN AND COMPOSITIONS THEREFOR” (The Procter & Gamble Company, priority 2015, published 2016).

Assay [1] concerns HMGB1 released from human neonatal keratinocytes exposed to CSE. Put plainly: HMGB1 Assay (in vitro stress test, cigarette smoke extract). Format: cell-based. The settings on record: 0.01% w/v + CSE; for AVG HMGB1 released: keratinocytes, 24 hours, ELISA; for effect on the amount of HMGB1 released by keratinocytes exposed to CSE, relative to CSE test medium: p<0.1 significant. As for the experimental part:
Human neonatal keratinocytes (available from Thermo) were placed in each well of four 12-well plates. Each well also contained 2 ml of EPILIFE brand keratinocyte medium. The plates were incubated at 37 ° C. in a CO2 incubator until cell confluency reached 70%. Once the cell confluency reached 70%, the keratinocyte medium in each well was replaced with the appropriate medium for the test (i.e., control medium, CSE test medium, niacinamide (“N”)+CSE test medium or nicotinamide riboside chloride (“NR”)+CSE test medium) to produce test samples. The resulting test samples were incubated for 24 hours at 37 ° C. in a CO2 incubator, after which the medium in each cell was removed and the HMGB 1 levels were determined using an ELISA kit from IBL according to the manufacturer's instructions.
The N and NR media were made by adding either niacinamide or nicotinamide riboside chloride (available from Chromadex, Irvine, Calif.) to EPILIFE brand keratinocyte medium to produce a 0.01% w/v solution. The cigarette smoke extract was made by suctioning a lit cigarette through a vacuum flask containing 60 mL of phosphate buffered saline (“PBS”). 4 CAMEL brand cigarettes with the filters cut off were used to create a batch of CSE. The CSE was diluted 1:20 using keratinocyte medium to create the CSE test medium. The N+CSE medium and NR+CSE medium were prepared by adding CSE test medium to final dilution of 1:6 (CSE:medium) and either N or NR to final dilution of 0.01% w/v. Unmodified keratinocyte medium was used as the control.

The subject of assay [2] is glycation reaction between the gelatin and glyceraldehyde. Put plainly: AGE Assay (in vitro suppression of AGE formation and yellowness reduction). The class given is biochemical. The settings on record: for % reduction in glycation rate vs. pos. ctrl.: 24-hr; for Δb* at 24-hr vs. 0-hour: blank-corrected yellowness; for ΔFLR at 24-hr vs. 0-hr: fluorescence 400/465 nm, 24 hours at 37° C. How it is done: The anti-glycation ability of NR was determined as follows. Samples were prepared in a 96-well plate (3 replicates each) at a total volume of 250 μl/well. The test samples contained 112.5 μl of 2% w/v gelatin solution (commercially available from Sigma as Catalog # G1393-100 ML), 10 μl of 1 M glyceraldehyde (commercially available from Sigma as Catalog # G5001-1 G), 102.5 p1 Dulbecco's phosphate buffered saline (“DPBS”) (commercially available from Gibco's), and varying doses (0.1%, 0.5%, 1% and 5% w/v) of nicotinamide riboside chloride (“NR”) (available from Chromadex, Irvine, CA). The positive control contained 112.5 μl gelatin, 10 μl of 1 M glyceraldehyde and 127.5 μl DPBS. The negative control contained 112.5 μl gelatin and 137.5 μl DPBS. A 5% w/v niacinamide (“N”) composition was used for a benchmark comparison. The niacinamide sample contained the same amounts of gelatin, glyceraldehyde and DPBS as the 5% NR sample. The plate containing the test samples was placed in a CO2 incubator (e.g., THERMO SCIENTIFIC FORMA brand CO2 incubator available from Fisher Scientific, Waltham, Mass. or equivalent) and incubated for 24 hours at 37° C.
After 24 hours, the plate containing the test samples was removed from the incubator and placed in a SPECTRAMAX Plus brand spectrophotometer (available from Molecular Devices, Sunnyvale, Calif.). The spectrophotometer was set to detect fluorescence intensity (“FLR”) at 400/465 nm (ex/em). Glycation rate was determined by measuring FLR, at 0-hour (i.e., at the start of the test), 2-hour, 5-hour and 24-hour time points. The change in fluorescence intensity (“ΔFLR”) was determined by comparing the FLR of a well at a sampling time point to the 0-hour time point. To determine yellowness (i.e., b* value), a SPECTRAMAX Plus brand spectrophotometer was used to collect wavelength/absorbance pairs from 350 nm to 750 nm in 10 nm increments following the same time course as the FLR measurements (i.e., 0-hour, 2-hour, 5-hour and 24-hour). The wavelength/absorbance pairs were then converted to L*a*b* values by a computer using conversion software. The change in yellowness (“Ab*”) at a particular time point was determined by subtracting the b* value at the 0-hour time point from the b* value measured at the time point of interest. To correct for yellowness that is not due to the glycation reaction between the gelatin and glyceraldehyde, a blank well was set up for each treatment leg. The blank well contains every ingredient in the corresponding treatment leg except for the gelatin. The b* value of the blank well is subtracted from the b* value measured for each well before calculating the final Ab* value.

Regarding `NC(=O)c1cccnc1` [N, niacinamide, reference compound], in assay [1], the “AVG HMGB1 released” value turned out to be 4.2790 ng/mL and the “effect on the amount of HMGB1 released by keratinocytes exposed to CSE, relative to CSE test medium” value was “no significant effect”. In addition, in assay [2] (5% w/v), the “% reduction in glycation rate vs. pos. ctrl.” value (“% reduction” below) was 33.2%, the “Δb* at 24-hr vs. 0-hour” value amounted to 9.19 and the “ΔFLR at 24-hr vs. 0-hr” value is 2341.
Turning to `NC(=O)c1ccc[n+]([C@@H]2O[C@H](CO)[C@@H](O)[C@H]2O)c1` [NR, nicotinamide riboside chloride], in assay [1], the “AVG HMGB1 released” value is 2.0741 ng/mL and the “effect on the amount of HMGB1 released by keratinocytes exposed to CSE, relative to CSE test medium” value is “significantly reduce”. In assay [2] (0.1% w/v), the “% reduction” value was 22.2%, the “Δb* at 24-hr vs. 0-hour” value was 9.44 and the “ΔFLR at 24-hr vs. 0-hr” value is recorded as 2729. For the same compound, in assay [2] (0.5% w/v), the “% reduction” value was 63%, the “Δb* at 24-hr vs. 0-hour” value is −4.24 and the “ΔFLR at 24-hr vs. 0-hr” value was determined as 1294. For the same compound, in assay [2] (1% w/v), the “% reduction” value came out at 85.5%, the “Δb* at 24-hr vs. 0-hour” value is on record as −11.00 and the “ΔFLR at 24-hr vs. 0-hr” value came to 507. Further, in assay [2] (5% w/v), the “% reduction” value stood at 98.8%, the “Δb* at 24-hr vs. 0-hour” value was −2.09 and the “ΔFLR at 24-hr vs. 0-hr” value is listed as 41.
